Values quoted from earlier work, collected in patent US8575191B2, “Methods for treatment of non-small cell lung cancer” (priority 2010, dated 2013).

System: NSCLC

In the case of `C#Cc1cccc(Nc2ncnc3cc(OCCOC)c(OCCOC)cc23)c1` [erlotinib], the “survival HR compared to placebo” value (adenocarcinoma) is listed as 0.8 and the response rate (unselected NSCLC patients previously treated with chemotherapy) is listed as 9%.
